Source: ChEMBL document CHEMBL1201862, “PubChem BioAssay data set” (2004)
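Cultured in 96-well plates, cells were exposed to test compound for 48 hours across five concentrations. At the GI50, growth is halved.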 Calls of active or inactive are those of the source. Cut-off read from the data, not from the text of the source: active = GI50 up to about 1.1 µM and inactive = higher.

What was measured:
Experiment in all cases: inhibition of tumour cell growth, NCI panel, 48 h
[1] = tested on: 786-0
[2] = tested on: UACC-62
[3] = tested on: CCRF-CEM
[4] = tested on: SW-620
[5] = tested on: UO-31
[6] = tested on: SN12C
[7] = tested on: SF-539
[8] = tested on: SF-295
[9] = tested on: U-251
[10] = tested on: HOP-62
[11] = tested on: PC-3
[12] = tested on: SK-OV-3
[13] = tested on: EKVX
[14] = tested on: TK-10
[15] = tested on: OVCAR-5
[16] = tested on: HCC 2998
[17] = tested on: SK-MEL-5
[18] = tested on: UACC-257
[19] = tested on: IGROV-1
[20] = tested on: HOP-92

Row | SMILES | GI50 [1] | GI50 [2] | GI50 [3] | GI50 [4] | GI50 [5] | GI50 [6] | GI50 [7] | GI50 [8] | GI50 [9] | GI50 [10] | GI50 [11] | GI50 [12] | GI50 [13] | GI50 [14] | GI50 [15] | GI50 [16] | GI50 [17] | GI50 [18] | GI50 [19] | GI50 [20]
1 | COc1ccccc1NC(=O)O/N=C(/Cl)C(C)C | 11.9 µM (inactive) | 17.5 µM (inactive) | 0.977 µM (active) | 1.82 µM (inactive) | 18.8 µM (inactive) | 15.4 µM (inactive) | 19.5 µM (inactive) | 15.2 µM (inactive) | 16.7 µM (inactive) | 12.5 µM (inactive) | 18.5 µM (inactive) | 18.7 µM (inactive) | 16.1 µM (inactive) | 13.6 µM (inactive) | 16.3 µM (inactive) | 15.6 µM (inactive) | 11.8 µM (inactive) | 13.7 µM (inactive) | 16.7 µM (inactive) | –
2 | CC(C)=CCc1c(O)c(CC=C(C)C)c2oc3c(c(=O)c2c1O)C(C=C(C)C)Oc1cc(O)ccc1-3 (configuration not stated) | 6.98 µM (inactive) | 6.37 µM (inactive) | 0.804 µM (active) | 4.17 µM (inactive) | 4.19 µM (inactive) | 6.9 µM (inactive) | 11.7 µM (inactive) | 5.97 µM (inactive) | 4.78 µM (inactive) | 12.5 µM (inactive) | 5.41 µM (inactive) | 14.7 µM (inactive) | 3.88 µM (inactive) | 4.17 µM (inactive) | 18.5 µM (inactive) | – | 8.53 µM (inactive) | 14 µM (inactive) | 7.53 µM (inactive) | 13.5 µM (inactive)
3 | CC(=O)/N=C1/N(/C=C2\C(=O)Oc3ccccc3C2=O)C(=O)/C(=C/c2ccc(Cl)cc2Cl)N1C | > 100 µM (inactive) | 26.2 µM (inactive) | 66.8 µM (inactive) | 50.6 µM (inactive) | – | > 100 µM (inactive) | 25.6 µM (inactive) | > 100 µM (inactive) | 52.6 µM (inactive) | 48.3 µM (inactive) | > 100 µM (inactive) | > 100 µM (inactive) | 18.7 µM (inactive) | – | > 100 µM (inactive) | > 100 µM (inactive) | 10.9 µM (inactive) | > 100 µM (inactive) | 40 µM (inactive) | –
4 | CCOC(=O)C(CC#Cc1ccc(C#CCC(NC(C)=O)C(=O)OCC)cc1)NC(C)=O (configuration not stated) | > 100 µM (inactive) | > 100 µM (inactive) | > 100 µM (inactive) | > 100 µM (inactive) | > 100 µM (inactive) | > 100 µM (inactive) | > 100 µM (inactive) | > 100 µM (inactive) | – | > 100 µM (inactive) | > 100 µM (inactive) | > 100 µM (inactive) | > 100 µM (inactive) | > 100 µM (inactive) | > 100 µM (inactive) | > 100 µM (inactive) | > 100 µM (inactive) | > 100 µM (inactive) | > 100 µM (inactive) | –
5 | CCCCCC/C=C\CCCCCCCCC(=O)c1cccc(OC)c1OC | > 100 µM (inactive) | > 100 µM (inactive) | 35.6 µM (inactive) | > 100 µM (inactive) | > 100 µM (inactive) | > 100 µM (inactive) | > 100 µM (inactive) | 45.7 µM (inactive) | > 100 µM (inactive) | > 100 µM (inactive) | 71 µM (inactive) | > 100 µM (inactive) | > 100 µM (inactive) | > 100 µM (inactive) | > 100 µM (inactive) | > 100 µM (inactive) | 15.2 µM (inactive) | 34.4 µM (inactive) | 35.4 µM (inactive) | –
6 | COC(=O)C1=C(C)NC2(C)OC(C)(O)C(C(C)=O)C12C(C)=O (configuration not stated) | > 100 µM (inactive) | > 100 µM (inactive) | 31.6 µM (inactive) | > 100 µM (inactive) | – | 47.6 µM (inactive) | 24.3 µM (inactive) | 32.1 µM (inactive) | 43.7 µM (inactive) | > 100 µM (inactive) | 13.9 µM (inactive) | 28.5 µM (inactive) | > 100 µM (inactive) | > 100 µM (inactive) | 31.5 µM (inactive) | – | > 100 µM (inactive) | > 100 µM (inactive) | > 100 µM (inactive) | 33.2 µM (inactive)
7 | O=C1/C(=C/c2ccc(Cl)cc2)NC(=S)N1CN1CCCCC1 | 30.2 µM (inactive) | 13.1 µM (inactive) | 17.8 µM (inactive) | 20.7 µM (inactive) | 28.1 µM (inactive) | 40.6 µM (inactive) | – | 36.9 µM (inactive) | 47.2 µM (inactive) | 87.9 µM (inactive) | 48.4 µM (inactive) | 63.4 µM (inactive) | 28.2 µM (inactive) | 39 µM (inactive) | 37.5 µM (inactive) | – | 31 µM (inactive) | – | 33.8 µM (inactive) | 50.5 µM (inactive)
8 | O=C(c1ccccc1)N1CCC(Nc2nccs2)O1 (configuration not stated) | > 10 µM (inactive) | – | > 10 µM (inactive) | > 10 µM (inactive) | > 10 µM (inactive) | > 10 µM (inactive) | > 10 µM (inactive) | > 10 µM (inactive) | – | > 10 µM (inactive) | > 10 µM (inactive) | > 10 µM (inactive) | > 10 µM (inactive) | > 10 µM (inactive) | > 10 µM (inactive) | > 10 µM (inactive) | > 10 µM (inactive) | > 10 µM (inactive) | > 10 µM (inactive) | –
9 | CC(C)=CC(=O)O[C@@H]1CC(C)(C)CC2C3=CCC4[C@]56CC[C@](O)(OC5)C(C)(C)C6CC[C@@]4(C)C3(C)CC[C@]21C(=O)O (some centres not stated) | 69.8 µM (inactive) | > 100 µM (inactive) | 41.7 µM (inactive) | > 100 µM (inactive) | – | 53.2 µM (inactive) | 38.5 µM (inactive) | 56.5 µM (inactive) | 32.9 µM (inactive) | 64.3 µM (inactive) | 33.2 µM (inactive) | > 100 µM (inactive) | > 100 µM (inactive) | 63.1 µM (inactive) | > 100 µM (inactive) | > 100 µM (inactive) | > 100 µM (inactive) | > 100 µM (inactive) | 31.8 µM (inactive) | –
10 | C=CCN1CCN([C@H](c2ccc(C(=O)N(CC)CC)cc2)c2cccc(OC)c2)CC1 | > 25 µM (inactive) | > 25 µM (inactive) | – | > 25 µM (inactive) | > 25 µM (inactive) | > 25 µM (inactive) | > 25 µM (inactive) | > 25 µM (inactive) | > 25 µM (inactive) | > 25 µM (inactive) | > 25 µM (inactive) | > 25 µM (inactive) | > 25 µM (inactive) | – | > 25 µM (inactive) | – | > 25 µM (inactive) | – | > 25 µM (inactive) | 16.8 µM (inactive)
11 | COc1cc(-c2oc3c(OC)c(O)c(OC)c(O)c3c(=O)c2OC)cc(OC)c1OC | 32.4 µM (inactive) | 24.3 µM (inactive) | 47.9 µM (inactive) | > 100 µM (inactive) | 17.3 µM (inactive) | > 100 µM (inactive) | 74.3 µM (inactive) | > 100 µM (inactive) | 47.6 µM (inactive) | 28.8 µM (inactive) | 65.8 µM (inactive) | 40.9 µM (inactive) | > 100 µM (inactive) | 55.5 µM (inactive) | > 100 µM (inactive) | 52.4 µM (inactive) | 14 µM (inactive) | 82.4 µM (inactive) | 31.3 µM (inactive) | –
